# From US11866720B2, “Transgenic or non-transgenic plants with mutated protoporphyrinogen oxidase having increased tolerance to herbicides” (priority 2013, dated 2024)
# Columns and labels:
# [1] = test system: transgenic soybean expressing mutated PPO; experiment: Soybean T0 cuttings, greenhouse spray test (injury score 0-9, 1 week after treatment); assay type: in vivo, Glycine max; conditions: soybean T0 cuttings, 1 week after treatment
# Text: For testing of T0 plants, cuttings can be used. In the case of soybean plants, an optimal shoot for cutting is about 7.5 to 10 cm tall, with at least two nodes present. Each cutting is taken from the original transformant (mother plant) and dipped into rooting hormone powder (indole-3-butyric acid, IBA). The cutting is then placed in oasis wedges inside a bio-dome. Wild type cuttings are also taken simultaneously to serve as controls. The cuttings are kept in the bio-dome for 5-7 days and then transplanted to pots and then acclimated in the growth chamber for two more days. Subsequently, the cuttings are transferred to the greenhouse, acclimated for approximately 4 days, and then subjected to spray tests as indicated. Depending on the species, the plants are kept at 10-25° C. or 20-35° C. The test period extends over 3 weeks. During this time, the plants are tended and their response to the individual treatments is evaluated. Herbicide injury evaluations are taken at 2 and 3 weeks after treatment. Plant injury is rated on a scale of 0% to 100%, 0% being no injury and 100% being complete death.
# Soybean cv Jake was transformed as previously described by Siminszky et al., Phytochem Rev. 5:445-458 (2006). After regeneration, transformants were transplanted to soil in small pots, placed in growth chambers (16 hr day/8 hr night; 25° C. day/23° C. night; 65% relative humidity; 130-150 microE m-2 s-1) and subsequently tested for the presence of the T-DNA via Taqman analysis. After a few weeks, healthy, transgenic positive, single copy events were transplanted to larger pots and allowed to grow in the growth chamber. An optimal shoot for cutting was about 3-4 inches tall, with at least two nodes present. Each cutting was taken from the original transformant (mother plant) and dipped into rooting hormone powder (indole-3-butyric acid, IBA). The cutting was then placed in oasis wedges inside a bio-dome. The mother plant was taken to maturity in the greenhouse and harvested for seed. Wild type cuttings were also taken simultaneously to serve as negative controls. The cuttings were kept in the bio-dome for 5-7 days and then transplanted to 3 inch pots and then acclimated in the growth chamber for two more days. […] Herbicide injury evaluations were taken at 2, 7, 14 and 21 days after treatment. Results are shown in Tables 11a-11i, and FIGS. 5, 6, and 7.
# The following gives a definition of the injury scores measured above: […]
# [2] = test system: transgenic Arabidopsis thaliana plants expressing wildtype or mutated PPO; experiment: Greenhouse tolerance test of transgenic T1 Arabidopsis plants (phytotox / injury rating 0-100); assay type: in vivo; conditions: +1% MSO
smiles,measurement,setting,value
"CC(C)N(C)S(=O)(=O)NC(=O)c1cc(-n2c(=O)cc(C(F)(F)F)n(C)c2=O)c(F)cc1Cl [Saflufenacil, saflufenacil]",Injury score from 0-9,"[1]; AmtuPPX2L_dG210_R128L (12 events), Kixor 25 + 1% MSO",0
same,Injury score from 0-9,"[1]; AmtuPPX2L_dG210_R128L (12 events), Kixor 50 + 1% MSO",1
same,Injury score from 0-9,"[1]; AmtuPPX2L_dG210_R128L (12 events), Kixor 100 + 1% MSO",1
same,Injury score from 0-9,"[1]; NitabPPX2 (13 events), Kixor 12.5 + 1% MSO",3
same,Injury score from 0-9,"[1]; NitabPPX2 (13 events), Kixor 25 + 1% MSO",6
same,Injury score from 0-9,"[1]; NitabPPX2 (13 events), Kixor 50 + 1% MSO",9
same,Injury score from 0-9,"[1]; NitabPPX2_R98A_F392V (9 events), Kixor 50 + 1% MSO",0
same,Injury score from 0-9,"[1]; NitabPPX2_R98A_F392V (9 events), Kixor 100 + 1% MSO",2
same,Injury score from 0-9,"[1]; NitabPPX2_R98A_F392V (9 events), Kixor 200 + 1% MSO",2
same,Injury score from 0-9,"[1]; wild type Jake variety, Kixor 12.5 + 1% MSO",9
same,Injury score from 0-9,"[1]; wild type Jake variety, Kixor 25 + 1% MSO",9
same,Injury score from 0-9,"[1]; wild type Jake variety, Kixor 50 + 1% MSO",9
same,Injury score from 0-9,"[1]; wild type Jake variety, Kixor 100 + 1% MSO",9
same,Injury score from 0-9,"[1]; wild type Jake variety, Kixor 200 + 1% MSO",9
same,"Plant growth injury, scale 0-100, 100 is 100% damage","[2]; non-transgenic Arabidopsis, POST, 7 DAT, 75 g ai/ha",98%
same,"Plant growth injury, scale 0-100, 100 is 100% damage","[2]; non-transgenic Arabidopsis, POST, 7 DAT, 150 g ai/ha",98%
same,"Plant growth injury, scale 0-100, 100 is 100% damage","[2]; non-transgenic Arabidopsis, POST, 7 DAT, 300 g ai/ha",98%
same,"Plant growth injury, scale 0-100, 100 is 100% damage","[2]; Ø F420V 1, POST, 7 DAT, 75 g ai/ha",39%
same,"Plant growth injury, scale 0-100, 100 is 100% damage","[2]; Ø F420V 1, POST, 7 DAT, 150 g ai/ha",60%
same,"Plant growth injury, scale 0-100, 100 is 100% damage","[2]; Ø F420V 1, POST, 7 DAT, 300 g ai/ha",77%
same,"Plant growth injury, scale 0-100, 100 is 100% damage","[2]; Ø F420V 1 to 3, 75 g ai/ha",42%
same,"Plant growth injury, scale 0-100, 100 is 100% damage","[2]; Ø F420V 1 to 3, 150 g ai/ha",60%
same,"Plant growth injury, scale 0-100, 100 is 100% damage","[2]; Ø F420V 1 to 3, 300 g ai/ha",76%
same,"Plant growth injury, scale 0-100, 100 is 100% damage","[2]; Ø F420V 2, POST, 7 DAT, 75 g ai/ha",36%
same,"Plant growth injury, scale 0-100, 100 is 100% damage","[2]; Ø F420V 2, POST, 7 DAT, 150 g ai/ha",55%
same,"Plant growth injury, scale 0-100, 100 is 100% damage","[2]; Ø F420V 2, POST, 7 DAT, 300 g ai/ha",72%
same,"Plant growth injury, scale 0-100, 100 is 100% damage","[2]; Ø F420V 3, POST, 7 DAT, 75 g ai/ha",51%
same,"Plant growth injury, scale 0-100, 100 is 100% damage","[2]; Ø F420V 3, POST, 7 DAT, 150 g ai/ha",66%
same,"Plant growth injury, scale 0-100, 100 is 100% damage","[2]; Ø F420V 3, POST, 7 DAT, 300 g ai/ha",78%
same,"Plant growth injury, scale 0-100, 100 is 100% damage","[2]; Ø R128A, F420V 1, POST, 7 DAT, 75 g ai/ha",16%
same,"Plant growth injury, scale 0-100, 100 is 100% damage","[2]; Ø R128A, F420V 1, POST, 7 DAT, 150 g ai/ha",18%
same,"Plant growth injury, scale 0-100, 100 is 100% damage","[2]; Ø R128A, F420V 1, POST, 7 DAT, 300 g ai/ha",22%
same,"Plant growth injury, scale 0-100, 100 is 100% damage","[2]; Ø R128A, F420V 1 to 3, 75 g ai/ha",18%
same,"Plant growth injury, scale 0-100, 100 is 100% damage","[2]; Ø R128A, F420V 1 to 3, 150 g ai/ha",20%
same,"Plant growth injury, scale 0-100, 100 is 100% damage","[2]; Ø R128A, F420V 1 to 3, 300 g ai/ha",21%
same,"Plant growth injury, scale 0-100, 100 is 100% damage","[2]; Ø R128A, F420V 2, POST, 7 DAT, 75 g ai/ha",22%
same,"Plant growth injury, scale 0-100, 100 is 100% damage","[2]; Ø R128A, F420V 2, POST, 7 DAT, 150 g ai/ha",24%
same,"Plant growth injury, scale 0-100, 100 is 100% damage","[2]; Ø R128A, F420V 2, POST, 7 DAT, 300 g ai/ha",22%
same,"Plant growth injury, scale 0-100, 100 is 100% damage","[2]; Ø R128A, F420V 3, POST, 7 DAT, 75 g ai/ha",18%
same,"Plant growth injury, scale 0-100, 100 is 100% damage","[2]; Ø R128A, F420V 3, POST, 7 DAT, 150 g ai/ha",18%
same,"Plant growth injury, scale 0-100, 100 is 100% damage","[2]; Ø R128A, F420V 3, POST, 7 DAT, 300 g ai/ha",19%
same,"Plant growth injury, scale 0-100, 100 is 100% damage","[2]; Ø non-transgenic Arabidopsis, POST, 7 DAT, 75 g ai/ha",98%
same,"Plant growth injury, scale 0-100, 100 is 100% damage","[2]; Ø non-transgenic Arabidopsis, POST, 7 DAT, 150 g ai/ha",98%
same,"Plant growth injury, scale 0-100, 100 is 100% damage","[2]; Ø non-transgenic Arabidopsis, POST, 7 DAT, 300 g ai/ha",98%
